Experimental data from patent US9931347B2, “Pharmaceutical compound” (IOmet Pharma Ltd., priority 2013, dated 2018).

How the values were obtained:
[1] = molecular target: T1, TDO (A172 human glioblastoma cells) (Homo sapiens, UniProt P48775); assay: A172 Kynurenine cell based assay; details: 500 μM L-tryptophan, 48 hours, kynurenine by Erhlich's reagent
T1 construct: This assay utilised cancer cells which expressed either TDO or IDO; endogenous in cells; host or cells: A172 human glioblastoma cells
Procedure, shortened: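 A172 glioblastoma cells (30,000/well) cultured at 37° C. in phenol red-free RPMI with 10% FCS, 2 mM L-glutamine and 500 μM L-tryptophan, with or without test compound. After 48 hours, kynurenine in the supernatant was read with Erhlich's reagent (5 min) as absorbance at 490 nm.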

Recombinant human TDO = Recombinant human TDO (Homo sapiens, UniProt P48775); assay: hTDO biochemical coupled assay; details: 330 μM L-tryptophan, coupled with kynurenine formamidase
Procedure, shortened: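 Recombinant human TDO with 330 μM L-tryptophan in 50 mM KPO4 pH 7.0 containing EGTA, EDTA, Triton X100, ascorbate, methylene blue, catalase and kynurenine formamidase (KynB), 17 min at room temperature. Stopped with Ehrlich's reagent, 5 min, then kynurenine fluorescence read (Ex475, Em530).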

[2] = molecular target: T2, IDO (SKOV3 human ovarian adenocarcinoma cells, IFN-γ induced) (Homo sapiens, UniProt P14902); assay: SKOV3 Kynurenine cell based assay; details: IDO induced by 500 ng/ml IFN-γ, 500 μM L-tryptophan, 48 hours
T2 construct: IDO expression was induced in the SKOV3 cells by the addition of 500 ng/ml IFN-γ; endogenous in cells; host or cells: SKOV3 human ovarian adenocarcinoma cells, induced with IFN-γ
Procedure, shortened: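 IFN-γ (500 ng/ml) induced IDO in SKOV3 cells, seeded at 40,000/well in phenol red-free RPMI with 10% FCS, 2 mM L-glutamine and 500 μM L-tryptophan. Cells were incubated with or without compound at 37° C for 48 h. Supernatant kynurenine was detected with Ehrlich's reagent.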

Recombinant human IDO = Recombinant human IDO (Homo sapiens, UniProt P14902); assay: hIDO biochemical coupled assay; details: 45 μM L-tryptophan, coupled with kynurenine formamidase
Procedure, shortened: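 Recombinant human IDO incubated in 50 mM KPO4 (pH 7.0), 0.5 mM EGTA, 0.5 mM EDTA, 0.05% Triton X100, 20 mM ascorbate, 10 μM methylene blue, 500 U/ml catalase and 50 μg/ml kynurenine formamidase. N-formylkynurenine converted to kynurenine, quantified by fluorescence after Ehrlich's reagent.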

T1 sequence (P48775 whole entry): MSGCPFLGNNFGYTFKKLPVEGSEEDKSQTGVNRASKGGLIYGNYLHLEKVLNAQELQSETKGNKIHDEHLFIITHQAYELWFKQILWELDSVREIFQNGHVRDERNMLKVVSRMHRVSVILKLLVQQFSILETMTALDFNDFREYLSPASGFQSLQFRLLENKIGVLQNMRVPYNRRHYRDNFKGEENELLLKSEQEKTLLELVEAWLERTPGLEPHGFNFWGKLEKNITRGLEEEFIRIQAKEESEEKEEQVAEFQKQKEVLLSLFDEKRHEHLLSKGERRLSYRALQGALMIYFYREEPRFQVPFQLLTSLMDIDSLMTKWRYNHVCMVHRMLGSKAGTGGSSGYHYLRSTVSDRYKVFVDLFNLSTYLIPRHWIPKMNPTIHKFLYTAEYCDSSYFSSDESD
Sequence of Recombinant human TDO (P48775 whole entry): as above
Sequence of Recombinant human IDO (P14902 whole entry): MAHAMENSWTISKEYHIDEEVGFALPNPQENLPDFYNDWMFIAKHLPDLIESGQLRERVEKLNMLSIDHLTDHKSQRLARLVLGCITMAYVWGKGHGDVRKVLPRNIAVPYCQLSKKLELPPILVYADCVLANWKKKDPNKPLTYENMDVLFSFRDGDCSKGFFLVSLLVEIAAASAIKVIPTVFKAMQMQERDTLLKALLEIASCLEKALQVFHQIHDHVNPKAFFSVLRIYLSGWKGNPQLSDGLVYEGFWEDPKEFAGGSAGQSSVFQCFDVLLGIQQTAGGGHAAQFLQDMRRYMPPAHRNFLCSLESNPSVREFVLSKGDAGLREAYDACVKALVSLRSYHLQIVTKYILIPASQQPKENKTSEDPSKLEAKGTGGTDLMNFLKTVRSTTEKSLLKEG
T2 sequence (P14902 whole entry): as above

| SMILES | A172 Kynurenine cell based assay pIC50 [1] | hTDO biochemical assay pIC50 (Recombinant human TDO) | SKOV3 Kynurenine cell based assay pIC50 [2] | hIDO biocehmical assay pIC50 (Recombinant human IDO) |
| --- | --- | --- | --- | --- |
| CC(=O)N1CC=C(c2c[nH]c3cc(F)c(F)cc23)CC1 [Compound 167] | ++ (++ = pIC50 5.00-5.99) | ++ (++ = pIC50 5.00-5.99) | + (+ = pIC50 4.00-4.99) | +− (+− = pIC50 <4.00) |
| CCCCS(=O)(=O)N1CC=C(c2c[nH]c3cc(F)ccc23)CC1 [Compound 18] | ++ (++ = pIC50 5.00-5.99) | + (+ = pIC50 4.00-4.99) | + (+ = pIC50 4.00-4.99) | +− (+− = pIC50 <4.00) |
| CS(=O)(=O)N1CC=C(c2c[nH]c3cccc(F)c23)CC1 [Compound 78] | + (+ = pIC50 4.00-4.99) | + (+ = pIC50 4.00-4.99) | +− (+− = pIC50 <4.00) | +− (+− = pIC50 <4.00) |
| COc1cccc2c(C3=CCN(C(C)=O)CC3)c[nH]c12 [Compound 88] | + (+ = pIC50 4.00-4.99) | ++ (++ = pIC50 5.00-5.99) | +− (+− = pIC50 <4.00) | +− (+− = pIC50 <4.00) |
| CS(=O)(=O)N1CCC(c2c[nH]c3cc(F)ccc23)CC1 [Compound 22] | +++ (+++ = pIC50 ≥6.00) | + (+ = pIC50 4.00-4.99) | +− (+− = pIC50 <4.00) | +− (+− = pIC50 <4.00) |
